Patent US20160355530A1, “HEPATITIS C INHIBITORS AND USES THEREOF” (AbbVie Inc., priority 2010, published 2016)
Like-named read-outs stand apart in the source and are kept apart here.

Columns and labels:
[1] = system: chimeric replicon with genotype 2b NS5B; test: microbe, parasite or virus in culture; format: cell-based, HCV genotype 2b; settings: Hepatitis C virus, read-out: 2b chimera 5% FBS EC50
[2] = system: chimeric replicon with genotype 3a NS5B; test: microbe, parasite or virus in culture; format: cell-based, HCV genotype 3a; settings: Hepatitis C virus, read-out: 3a chimera 5% FBS EC50
[3] = system: HCV NS5B polymerase 1a-H77-C316Y; test: biochemical; design: species or system HCV genotype 1a; settings: ratio of enzyme IC50s, 1a H77-C316Y / 1a H77
How it was run: (§1)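 Recombinant NS5B (residues 1–570, His-tagged, E. coli-expressed) copied 5 nM of a 2.1 kb HCV 1b negative-strand 3′-end RNA template with 20 μM CTP, 20 μM ATP and 0.284 μM [3H]UTP for 3 h at 30 °C. Spermine-precipitated RNA was filter-captured and counted, and IC50 was fitted by nonlinear regression.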

[4] = biological target: T1, HCV NS5B polymerase 1a-H77-C316Y (Hepatitis C virus genotype 1a, UniProt P27958, C2736Y); test: biochemical; design: species or system HCV genotype 1a
T1 construct: six-histidine tag; made in house; host or cells: E. coli
T1 sequence (P27958 2421-2990 C2736Y): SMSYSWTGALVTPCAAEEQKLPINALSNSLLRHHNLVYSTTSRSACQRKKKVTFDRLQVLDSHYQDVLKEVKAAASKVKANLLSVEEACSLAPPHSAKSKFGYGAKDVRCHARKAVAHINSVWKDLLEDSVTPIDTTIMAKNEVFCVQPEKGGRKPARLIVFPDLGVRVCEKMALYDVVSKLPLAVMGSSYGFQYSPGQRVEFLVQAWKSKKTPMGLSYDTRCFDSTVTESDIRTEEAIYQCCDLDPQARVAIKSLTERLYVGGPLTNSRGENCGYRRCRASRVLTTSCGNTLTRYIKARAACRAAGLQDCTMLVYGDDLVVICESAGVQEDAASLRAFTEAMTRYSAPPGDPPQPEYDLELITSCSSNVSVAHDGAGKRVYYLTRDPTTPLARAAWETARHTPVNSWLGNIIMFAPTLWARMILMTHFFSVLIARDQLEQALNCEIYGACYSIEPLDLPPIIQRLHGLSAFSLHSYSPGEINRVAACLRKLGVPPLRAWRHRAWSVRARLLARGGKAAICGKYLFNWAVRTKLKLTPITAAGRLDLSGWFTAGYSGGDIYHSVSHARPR
How it was run: as §1

[5] = biological target: T2, HCV NS5B polymerase 1a-H77 (Hepatitis C virus genotype 1a, UniProt P27958); test: biochemical; design: species or system HCV genotype 1a; settings: enzyme, strain 1a H77; read-out: HCV Polymerase Strain 1a H77 IC50
T2 construct: six-histidine tag; made in house; host or cells: E. coli
T2 sequence (P27958 2421-2990): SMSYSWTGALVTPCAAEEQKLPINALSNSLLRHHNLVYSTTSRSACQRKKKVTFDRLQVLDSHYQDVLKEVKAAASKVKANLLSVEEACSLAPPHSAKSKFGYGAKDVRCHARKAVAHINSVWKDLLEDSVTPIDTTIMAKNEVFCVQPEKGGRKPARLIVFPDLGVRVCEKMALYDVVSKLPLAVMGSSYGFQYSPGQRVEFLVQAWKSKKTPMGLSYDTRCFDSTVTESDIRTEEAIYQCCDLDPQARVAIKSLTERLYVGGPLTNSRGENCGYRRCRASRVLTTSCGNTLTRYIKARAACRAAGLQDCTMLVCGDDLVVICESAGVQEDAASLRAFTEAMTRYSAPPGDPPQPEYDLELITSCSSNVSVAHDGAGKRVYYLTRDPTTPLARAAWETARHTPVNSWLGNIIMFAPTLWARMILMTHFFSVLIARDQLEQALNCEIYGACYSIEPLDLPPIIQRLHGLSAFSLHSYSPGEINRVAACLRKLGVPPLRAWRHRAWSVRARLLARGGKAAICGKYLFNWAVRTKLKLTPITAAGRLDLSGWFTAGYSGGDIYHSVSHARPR
How it was run: as §1

[6] = system: chimeric replicon with genotype 4a NS5B; test: microbe, parasite or virus in culture; format: cell-based, HCV genotype 4a; settings: Hepatitis C virus, read-out: 4a chimera 5% FBS EC50
[7] = system: chimeric replicon with 2a-J6CF-derived NS5B; test: microbe, parasite or virus in culture; format: cell-based, HCV genotype 2a; settings: Hepatitis C virus, read-out: 2a chimera 5% FBS EC50
[8] = system: HCV 1a-H77 subgenomic replicon; test: microbe, parasite or virus in culture; format: cell-based, HCV genotype 1a; settings: Hepatitis C virus, stable replicon
[9] = system: HCV 1b-BB7 subgenomic replicon; test: microbe, parasite or virus in culture; format: cell-based, HCV genotype 1b; settings: Hepatitis C virus, stable replicon
[10] = biological target: T3, HCV NS5B polymerase 1b BK strain (Hepatitis C virus genotype 1b, UniProt P26663); test: HCV NS5B polymerase enzymatic inhibition assay, strain 1b BK; format: biochemical; settings: enzyme, strain 1b BK; read-out: HCV Polymerase Strain 1b BK IC50
T3 construct: six-histidine tag; made in house; host or cells: E. coli
T3 sequence (P26663 2420-2989): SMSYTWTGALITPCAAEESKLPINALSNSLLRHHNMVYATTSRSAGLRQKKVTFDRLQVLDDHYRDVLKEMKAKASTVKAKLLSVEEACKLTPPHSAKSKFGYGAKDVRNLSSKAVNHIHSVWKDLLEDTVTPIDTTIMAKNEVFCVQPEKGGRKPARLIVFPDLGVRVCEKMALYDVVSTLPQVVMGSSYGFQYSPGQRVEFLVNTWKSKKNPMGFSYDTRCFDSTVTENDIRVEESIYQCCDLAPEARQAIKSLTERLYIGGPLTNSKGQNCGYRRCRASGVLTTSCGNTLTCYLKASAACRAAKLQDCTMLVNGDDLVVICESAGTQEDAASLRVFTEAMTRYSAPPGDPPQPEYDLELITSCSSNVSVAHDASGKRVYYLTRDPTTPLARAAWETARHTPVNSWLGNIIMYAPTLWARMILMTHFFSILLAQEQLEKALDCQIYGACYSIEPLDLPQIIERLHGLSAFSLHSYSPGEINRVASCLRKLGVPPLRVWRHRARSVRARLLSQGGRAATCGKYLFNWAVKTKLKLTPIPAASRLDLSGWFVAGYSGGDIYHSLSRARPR
How it was run: as §1

[11] = 5% FBS, absence of human plasma, read-out: Stable Replicon 1a H77 5% FBS EC50
[12] = strain 1a H77, 5% FBS + 40% human plasma, read-out: 1a H77 5% FBS + 40% Human Plasma EC50
[13] = strain 1a H77, 5% FBS, no human plasma, read-out: 1a H77 5% FBS EC50
[14] = strain 1a H77, 5% FBS, read-out: 1a H77 5% FBS EC50
[15] = strain 1b BB7, 5% FBS + 40% human plasma, read-out: 1b BB7 5% FBS + 40% Human Plasma EC50
[16] = strain 1b BB7, 5% FBS, no human plasma, read-out: 1b BB7 5% FBS EC50
[17] = strain 1b BB7, 5% FBS, read-out: 1b BB7 5% FBS EC50

Structure (SMILES): [2H]C([2H])(CCCCC)N(c1cc2oc(-c3ccc(F)cc3)c(-c3ncc[nH]3)c2cc1C1CC1)S(C)(=O)=O [Example 113, N-[5-cyclopropyl-2-(4-fluorophenyl)-3-(1H-imidazol-2-yl)-1-benzofuran-6-yl]-N-[(1,1-^2H2)hexyl]methanesulfonamide]
- EC50 [1]: 279 nM
- EC50 [2]: 41 nM
- C316Y/1a Fold Resistance [3]: 22 fold
- IC50 [4]: 140 nM
- IC50 [5]: 6.5 nM
- EC50 [6]: 144 nM
- EC50 [7]: 209 nM
- EC50 [8, 11]: 59.9 nM
- EC50 [8, 12]: 646 nM
- EC50 [8, 13]: 59.9 nM
- EC50 [8, 14]: 59.9 nM
- EC50 [9, 15]: 549 nM
- EC50 [9, 16]: 28 nM
- EC50 [9, 17]: 28 nM
- IC50 [10]: 16 nM

Structure (SMILES): CCOP(=O)(CCCN(c1cc2oc(-c3ccc(F)cc3)c(C3=NOCCN3)c2cc1C1CC1)S(C)(=O)=O)OCC [Example 116, diethyl (3-{[5-cyclopropyl-3-(5,6-dihydro-4H-1,2,4-oxadiazin-3-yl)-2-(4-fluorophenyl)-1-benzofuran-6-yl](methylsulfonyl)amino}propyl)phosphonate]
- EC50 [1]: 396 nM
- EC50 [2]: 84 nM
- C316Y/1a Fold Resistance [3]: 8 fold
- IC50 [4]: 63 nM
- IC50 [5]: 7.5 nM
- EC50 [6]: 247 nM
- EC50 [7]: 535 nM
- EC50 [8, 11]: 35.9 nM
- EC50 [8, 12]: 157 nM
- EC50 [8, 13]: 35.9 nM
- EC50 [8, 14]: 35.9 nM
- EC50 [9, 15]: 213 nM
- EC50 [9, 16]: 32 nM
- EC50 [9, 17]: 32 nM
- IC50 [10]: 35 nM

Structure (SMILES): CS(=O)(=O)N(CCCC(F)(F)F)c1cc2oc(-c3ccc(F)cc3)c(C3=NOCCN3)c2cc1C1CC1 [Example 117, N-[5-cyclopropyl-3-(5,6-dihydro-4H-1,2,4-oxadiazin-3-yl)-2-(4-fluorophenyl)-1-benzofuran-6-yl]-N-(4,4,4-trifluorobutyl)methanesulfonamide]
- EC50 [1]: 240 nM
- EC50 [2]: 31 nM
- C316Y/1a Fold Resistance [3]: 8 fold
- IC50 [4]: 36 nM
- IC50 [5]: 4.5 nM
- EC50 [6]: 233 nM
- EC50 [7]: 214 nM
- EC50 [8, 11]: 22 nM
- EC50 [8, 12]: 159 nM
- EC50 [8, 13]: 22 nM
- EC50 [8, 14]: 22 nM
- EC50 [9, 15]: 245 nM
- EC50 [9, 16]: 30 nM
- EC50 [9, 17]: 30 nM
- IC50 [10]: 31 nM

Structure (SMILES): CS(=O)(=O)N(CCC(F)(F)F)c1cc2oc(-c3ccc(F)cc3)c(C3=NOCCN3)c2cc1C1CC1 [Example 118, N-[5-cyclopropyl-3-(5,6-dihydro-4H-1,2,4-oxadiazin-3-yl)-2-(4-fluorophenyl)-1-benzofuran-6-yl]-N-(3,3,3-trifluoropropyl)methanesulfonamide]
- EC50 [1]: 477 nM
- EC50 [2]: 47 nM
- C316Y/1a Fold Resistance [3]: 19 fold
- IC50 [4]: 114 nM
- IC50 [5]: 5.9 nM
- EC50 [6]: 449 nM
- EC50 [7]: 230 nM
- EC50 [8, 11]: 19.8 nM
- EC50 [8, 12]: 165 nM
- EC50 [8, 13]: 19.8 nM
- EC50 [8, 14]: 19.8 nM
- EC50 [9, 15]: 253 nM
- EC50 [9, 16]: 26 nM
- EC50 [9, 17]: 26 nM
- IC50 [10]: 49 nM

Structure (SMILES): CS(=O)(=O)N(CCCn1cccc1)c1cc2oc(-c3ccc(F)cc3)c(C3=NOCCN3)c2cc1C1CC1 [Example 119, N-[5-cyclopropyl-3-(5,6-dihydro-4H-1,2,4-oxadiazin-3-yl)-2-(4-fluorophenyl)-1-benzofuran-6-yl]-N-[3-(1H-pyrrol-1-yl)propyl]methanesulfonamide]
- EC50 [1]: 189 nM
- EC50 [2]: 30 nM
- C316Y/1a Fold Resistance [3]: 6 fold
- IC50 [4]: 41 nM
- IC50 [5]: 7 nM
- EC50 [6]: 142 nM
- EC50 [7]: 79 nM
- EC50 [8, 11]: 19.4 nM
- EC50 [8, 12]: 247 nM
- EC50 [8, 13]: 19.4 nM
- EC50 [8, 14]: 19.4 nM
- EC50 [9, 15]: 129 nM
- EC50 [9, 16]: 17 nM
- EC50 [9, 17]: 17 nM
- IC50 [10]: 38 nM

Structure (SMILES): CS(=O)(=O)N(CCCCC(F)=C(F)F)c1cc2oc(-c3ccc(F)cc3)c(C3=NOCCN3)c2cc1C1CC1 [Example 120, N-[5-cyclopropyl-3-(5,6-dihydro-4H-1,2,4-oxadiazin-3-yl)-2-(4-fluorophenyl)-1-benzofuran-6-yl]-N-(5,6,6-trifluorohex-5-en-1-yl)methanesulfonamide]
- EC50 [1]: 157 nM
- EC50 [2]: 36 nM
- C316Y/1a Fold Resistance [3]: 6 fold
- IC50 [4]: 28 nM
- IC50 [5]: 5 nM
- EC50 [6]: 82 nM
- EC50 [7]: 125 nM
- EC50 [8, 11]: 17.5 nM
- EC50 [8, 12]: 190 nM
- EC50 [8, 13]: 17.5 nM
- EC50 [8, 14]: 17.5 nM
- EC50 [9, 15]: 189 nM
- EC50 [9, 16]: 18 nM
- EC50 [9, 17]: 18 nM
- IC50 [10]: 47 nM

Structure (SMILES): CC(C)(O)CCN(c1cc2oc(-c3ccc(F)cc3)c(C3=NOCCN3)c2cc1C1CC1)S(C)(=O)=O [Example 125, N-[5-cyclopropyl-3-(5,6-dihydro-4H-1,2,4-oxadiazin-3-yl)-2-(4-fluorophenyl)-1-benzofuran-6-yl]-N-(3-hydroxy-3-methylbutyl)methanesulfonamide]
- EC50 [1]: 182 nM
- EC50 [2]: 50 nM
- C316Y/1a Fold Resistance [3]: 10 fold
- IC50 [4]: 112 nM
- IC50 [5]: 11 nM
- EC50 [6]: 85 nM
- EC50 [7]: 222 nM
- EC50 [8, 11]: 12.6 nM
- EC50 [8, 12]: 156 nM
- EC50 [8, 13]: 12.6 nM
- EC50 [8, 14]: 12.6 nM
- EC50 [9, 15]: 347 nM
- EC50 [9, 16]: 20 nM
- EC50 [9, 17]: 20 nM
- IC50 [10]: 60 nM

Structure (SMILES): CN(C)CCCN(c1cc2oc(-c3ccc(F)cc3)c(C3=NOCCN3)c2cc1C1CC1)S(C)(=O)=O [Example 127, N-[5-cyclopropyl-3-(5,6-dihydro-4H-1,2,4-oxadiazin-3-yl)-2-(4-fluorophenyl)-1-benzofuran-6-yl]-N-[3-(dimethylamino)propyl]methanesulfonamide]
- EC50 [1]: 309 nM
- EC50 [2]: 57 nM
- C316Y/1a Fold Resistance [3]: 26 fold
- IC50 [4]: 663 nM
- IC50 [5]: 25.4 nM
- EC50 [6]: 814 nM
- EC50 [7]: 344 nM
- EC50 [8, 11]: 64.8 nM
- EC50 [8, 12]: 123 nM
- EC50 [8, 13]: 64.8 nM
- EC50 [8, 14]: 64.8 nM
- EC50 [9, 15]: 90 nM
- EC50 [9, 16]: 21 nM
- EC50 [9, 17]: 21 nM
- IC50 [10]: 302 nM

Structure (SMILES): CS(=O)(=O)N(CCN1CCCC1)c1cc2oc(-c3ccc(F)cc3)c(C3=NOCCN3)c2cc1C1CC1 [Example 128, N-[5-cyclopropyl-3-(5,6-dihydro-4H-1,2,4-oxadiazin-3-yl)-2-(4-fluorophenyl)-1-benzofuran-6-yl]-N-[2-(pyrrolidin-1-yl)ethyl]methanesulfonamide]
- EC50 [1]: 839 nM
- EC50 [2]: 216 nM
- C316Y/1a Fold Resistance [3]: 22 fold
- IC50 [4]: 995 nM
- IC50 [5]: 45.6 nM
- EC50 [6]: > 1000 nM
- EC50 [7]: 699 nM
- EC50 [8, 11]: 161 nM
- EC50 [8, 12]: 383 nM
- EC50 [8, 13]: 161 nM
- EC50 [8, 14]: 161 nM
- EC50 [9, 15]: 268 nM
- EC50 [9, 16]: 44 nM
- EC50 [9, 17]: 44 nM
- IC50 [10]: 667 nM

Structure (SMILES): CCN(CC)CCN(c1cc2oc(-c3ccc(F)cc3)c(C3=NOCCN3)c2cc1C1CC1)S(C)(=O)=O [Example 129, N-[5-cyclopropyl-3-(5,6-dihydro-4H-1,2,4-oxadiazin-3-yl)-2-(4-fluorophenyl)-1-benzofuran-6-yl]-N-[2-(diethylamino)ethyl]methanesulfonamide]
- EC50 [1]: 625 nM
- EC50 [2]: 149 nM
- C316Y/1a Fold Resistance [3]: 26 fold
- IC50 [4]: 632 nM
- IC50 [5]: 24 nM
- EC50 [6]: > 1000 nM
- EC50 [7]: 625 nM
- EC50 [8, 11]: 80.9 nM
- EC50 [8, 12]: 300 nM
- EC50 [8, 13]: 80.9 nM
- EC50 [8, 14]: 80.9 nM
- EC50 [9, 15]: 163 nM
- EC50 [9, 16]: 38 nM
- EC50 [9, 17]: 38 nM
- IC50 [10]: 466 nM
